From US10329309B2, “3-(3H-imidazo[4,5-B]pyridin-2-yl)-1H-pyrazolo[4,3-B]pyridines and therapeutic uses thereof” (Samumed, LLC, priority 2015, dated 2019)

Tested on: primary human fibroblasts derived from IPF patients (LL29 cells), α-smooth muscle actin (αSMA)
Assay: Inhibition of the fibrotic process: TGF-β1-treated primary human fibroblasts from IPF patients, αSMA staining
Format: cell-based
Conditions: Fibroblast, 96 h, 4 days; for EC50: LL29 fibroblasts from IPF patients, TGF-β1 20 ng/mL, inhibition of fibrotic process; for inhibition at 10 µM: LL29 fibroblasts, TGF-β1 treated, read-out: percent inhibition at 10 μM (given for EC50 of >10 μM)
How it was run: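 LL29 cells plated in F12 with 1% FBS, compounds added as 11-point 1:2 series (10 μM to 1.87 nM, 0.1% DMSO), then TGF-β1 20 ng/mL; 4 days at 37 °C. Fixed, αSMA immunostained, imaged; SYTOX-positive cells excluded. % αSMA-positive cells normalized to TGF-β1 wells; EC50 by non-linear regression, or % inhibition at 10 μM.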

Cc1ncc(-c2ccc3[nH]nc(-c4nc5c(-c6ccoc6)ccnc5[nH]4)c3n2)n1C [Compound 685, 5-(1,2-Dimethyl-1H-imidazol-5-yl)-3-(7-(furan-3-yl)-3H-imidazo[4,5-b]pyridin-2-yl)-1H-pyrazolo[4,3-b]pyridine] was tested, and the EC50 was greater than 10 µM and the inhibition at 10 µM was 0%.
Cn1cc(-c2ccc3[nH]nc(-c4nc5c(-c6ccc(F)cc6)ccnc5[nH]4)c3n2)c(CO)n1 [Compound 1129, (4-(3-(7-(4-Fluorophenyl)-3H-imidazo[4,5-b]pyridin-2-yl)-1H-pyrazolo[4,3-b]pyridin-5-yl)-1-methyl-1H-pyrazol-3-yl)methanol] gave an EC50 of 0.342 µM.
Compound O=C(Nc1cncc(-c2ccc3[nH]nc(-c4nc5c(-c6ccccc6F)ccnc5[nH]4)c3n2)c1)C1CCCC1 [Compound 78, N-(5-(3-(7-(2-fluorophenyl)-3H-imidazo[4,5-b]pyridin-2-yl)-1H-pyrazolo [4,3-b]pyridin-5-yl)pyridin-3-yl)cyclopentanecarboxamide] has an EC50 of 2.83 µM.
For Cc1cn(-c2ccnc3[nH]c(-c4n[nH]c5ccc(C6=CCNCC6)nc45)nc23)cn1 [Compound 618, 3-(7-(4-Methyl-1H-imidazol-1-yl)-3H-imidazo[4,5-b]pyridin-2-yl)-5-(1,2,3,6-tetrahydropyridin-4-yl)-1H-pyrazolo[4,3-b]pyridine], the EC50 was greater than 10 µM and the inhibition at 10 µM was 0%.
In the case of C1=C(c2ccc3[nH]nc(-c4nc5c(-c6ccc7c(c6)OCO7)ccnc5[nH]4)c3n2)CCNC1 [Compound 1109, 3-(7-(Benzo[d][1,3]dioxol-5-yl)-3H-imidazo[4,5-b]pyridin-2-yl)-5-(1,2,3,6-tetrahydropyridin-4-yl)-1H-pyrazolo[4,3-b]pyridine], the EC50 is reported as 6.2 µM.
O=C(CC1CCNCC1)Nc1cncc(-c2ccc3[nH]nc(-c4nc5c(-c6ccsc6)ccnc5[nH]4)c3n2)c1 [Compound 673, 2-(Piperidin-4-yl)-N-(5-(3-(7-(thiophen-3-yl)-3H-imidazo[4,5-b]pyridin-2-yl)-1H-pyrazolo[4,3-b]pyridin-5-yl)pyridin-3-yl)acetamide] gave an EC50 of 4.75 µM.
O=C(Nc1cncc(-c2ccc3[nH]nc(-c4nc5cccnc5[nH]4)c3n2)c1)C1CCCCC1 [Compound 275, N-(5-(3-(3H-Imidazo[4,5-b]pyridin-2-yl)-1H-pyrazolo[4,3-b]pyridin-5-yl)pyridin-3-yl)cyclohexanecarboxamide] gave an EC50 of 3.96 µM.
With CN(C)CCOc1cncc(-c2ccc3[nH]nc(-c4nc5c(-c6cccs6)ccnc5[nH]4)c3n2)c1 [Compound 707, N,N-Dimethyl-2-((5-(3-(7-(thiophen-2-yl)-3H-imidazo[4,5-b]pyridin-2-yl)-1H-pyrazolo[4,3-b]pyridin-5-yl)pyridin-3-yl)oxy)ethan-1-amine] the EC50 was 2.43 µM.
With CN(C)CCNc1cc(F)cc(-c2ccnc3[nH]c(-c4n[nH]c5ccc(-c6cncc(OCCN7CCCC7)c6)nc45)nc23)c1 [Compound 786, N^1-(3-Fluoro-5-(2-(5-(5-(2-(pyrrolidin-1-yl)ethoxy)pyridin-3-yl)-1H-pyrazolo[4,3-b]pyridin-3-yl)-3H-imidazo[4,5-b]pyridin-7-yl)phenyl)-N^2,N^2-dimethylethane-1,2-diamine] the EC50 was 2.9 µM.
CN1CCN(c2ccnc3[nH]c(-c4n[nH]c5ccc(-c6cnccn6)nc45)nc23)CC1 [Compound 648, 3-(7-(4-Methylpiperazin-1-yl)-3H-imidazo[4,5-b]pyridin-2-yl)-5-(pyrazin-2-yl)-1H-pyrazolo[4,3-b]pyridine] showed an EC50 greater than 10 µM and an inhibition at 10 µM of 0%.
CN(C)CCNc1cc(F)cc(-c2ccnc3[nH]c(-c4n[nH]c5ccc(-c6cnccn6)nc45)nc23)c1 [Compound 792, N^1-(3-Fluoro-5-(2-(5-(pyrazin-2-yl)-1H-pyrazolo[4,3-b]pyridin-3-yl)-3H-imidazo[4,5-b]pyridin-7-yl)phenyl)-N^2,N^2-dimethylethane-1,2-diamine] was tested, and the EC50 was 2.24 µM.
Compound c1cnc2[nH]c(-c3n[nH]c4ccc(-c5cncc(OC6CCNCC6)c5)nc34)nc2c1 [Compound 656, 3-(3H-Imidazo[4,5-b]pyridin-2-yl)-5-(5-(piperidin-4-yloxy)pyridin-3-yl)-1H-pyrazolo[4,3-b]pyridine] has an EC50 of 6.27 µM.
Work on CS(=O)(=O)NCc1cc(F)cc(-c2ccnc3[nH]c(-c4n[nH]c5ccc(-c6cncc(NC(=O)CC7CCNCC7)c6)nc45)nc23)c1 [Compound 769, N-(5-(3-(7-(3-Fluoro-5-(methylsulfonamidomethyl)phenyl)-3H-imidazo[4,5-b]pyridin-2-yl)-1H-pyrazolo[4,3-b]pyridin-5-yl)pyridin-3-yl)-2-(piperidin-4-yl)acetamide] yielded an EC50 of 4.46 µM.
Cc1ccc(-c2ccnc3[nH]c(-c4n[nH]c5ccc(-c6cncc(OC7CCCCC7)c6)nc45)nc23)s1 [Compound 735, 5-(5-(Cyclohexyloxy)pyridin-3-yl)-3-(7-(5-methylthiophen-2-yl)-3H-imidazo[4,5-b]pyridin-2-yl)-1H-pyrazolo[4,3-b]pyridine] was tested, and the EC50 was 0.139 µM.
With O=C(Nc1cncc(-c2ccc3[nH]nc(-c4nc5c(-c6ccccn6)ccnc5[nH]4)c3n2)c1)c1ccccc1 [Compound 151, N-(5-(3-(7-(Pyridin-2-yl)-3H-imidazo[4,5-b]pyridin-2-yl)-1H-pyrazolo[4,3-b]pyridin-5-yl)pyridin-3-yl)benzamide] the EC50 was greater than 10 µM and the inhibition at 10 µM was 0%.
Oc1cncc(-c2ccc3[nH]nc(-c4nc5c(-c6cccnc6)ccnc5[nH]4)c3n2)c1 [Compound 565, 5-(3-(7-(Pyridin-3-yl)-3H-imidazo[4,5-b]pyridin-2-yl)-1H-pyrazolo[4,3-b]pyridin-5-yl)pyridin-3-ol] gave an EC50 greater than 10 µM and an inhibition at 10 µM of 0%.
CN1CCN(c2ccnc3[nH]c(-c4n[nH]c5ccc(-c6cncnc6)nc45)nc23)CC1 [Compound 251, 3-(7-(4-Methylpiperazin-1-yl)-3H-imidazo[4,5-b]pyridin-2-yl)-5-(pyrimidin-5-yl)-1H-pyrazolo[4,3-b]pyridine] gave an EC50 of 4.36 µM.
Compound c1cc(-c2ccc3[nH]nc(-c4nc5c(-c6ccncc6)ccnc5[nH]4)c3n2)ccn1 [Compound 130, 5-(pyridin-4-yl)-3-(7-(pyridin-4-yl)-3H-imidazo[4,5-b]pyridin-2-yl)-1H-pyrazolo [4,3-b]pyridine] has an EC50 greater than 10 µM and an inhibition at 10 µM of 39.3%.
For c1cc(-c2ccoc2)c2nc(-c3n[nH]c4ccc(-c5cncc(OCCN6CCCC6)c5)nc34)[nH]c2n1 [Compound 690, 3-(7-(Furan-3-yl)-3H-imidazo[4,5-b]pyridin-2-yl)-5-(5-(2-(pyrrolidin-1-yl)ethoxy)pyridin-3-yl)-1H-pyrazolo[4,3-b]pyridine], the EC50 was 4.75 µM.
Compound Cn1cc(-c2ccc3[nH]nc(-c4nc5c(-c6cccs6)ccnc5[nH]4)c3n2)cn1 [Compound 700, 5-(1-Methyl-1H-pyrazol-4-yl)-3-(7-(thiophen-2-yl)-3H-imidazo[4,5-b]pyridin-2-yl)-1H-pyrazolo[4,3-b]pyridine] has an EC50 of 0.438 µM.
Compound Cn1cc(-c2ccc3[nH]nc(-c4nc5c(-c6ccc7c(c6)OCO7)ccnc5[nH]4)c3n2)c(CO)n1 [Compound 1152, (4-(3-(7-(Benzo[d][1,3]dioxol-5-yl)-3H-imidazo[4,5-b]pyridin-2-yl)-1H-pyrazolo[4,3-b]pyridin-5-yl)-1-methyl-1H-pyrazol-3-yl)methanol] has an EC50 of 0.317 µM.
Cc1cn(-c2ccnc3[nH]c(-c4n[nH]c5ccc(-c6cncc(N7CC(N)C7)n6)nc45)nc23)cn1 [Compound 622, 1-(6-(3-(7-(4-Methyl-1H-imidazol-1-yl)-3H-imidazo[4,5-b]pyridin-2-yl)-1H-pyrazolo[4,3-b]pyridin-5-yl)pyrazin-2-yl)azetidin-3-amine] showed an EC50 of 4.82 µM.
Oc1cncc(-c2ccc3[nH]nc(-c4nc5cccnc5[nH]4)c3n2)c1 [Compound 661, 5-(3-(3H-Imidazo[4,5-b]pyridin-2-yl)-1H-pyrazolo[4,3-b]pyridin-5-yl) pyridin-3-ol] was tested, and the EC50 was greater than 10 µM and the inhibition at 10 µM was 6.2%.
With c1cc(N2CCCCC2)c2nc(-c3n[nH]c4ccc(-c5cncc(OCCN6CCCC6)c5)nc34)[nH]c2n1 [Compound 610, 3-(7-(Piperidin-1-yl)-3H-imidazo[4,5-b]pyridin-2-yl)-5-(5-(2-(pyrrolidin-1-yl)ethoxy)pyridin-3-yl)-1H-pyrazolo[4,3-b]pyridine] the EC50 was 2.27 µM.
